Data as given in patent US20230382911A1 (Hoffmann-La Roche Inc., priority 2021, published 2023).

Target: Recombinant human Mat2a (Homo sapiens (Human), UniProt P31153)
Test: Determination of Mat2A activity: 384 well format absorbance-based Mat2A inhibition assay
Type: biochemical
Conditions: 12.5 nM Mat2A, 100 μM ATP and Methionine, 2% DMSO, 120 minutes at RT, Biomol Green, absorbance at 635 nm
Description: Determination of Mat2A Activity
Measurement of Mat2A inhibition is performed in 384 well format absorbance-based assay.
Recombinant human Mat2a (12.5 nM) and serial diluted compounds in DMSO (range of concentrations from 10 μM to […]) or controls (DMSO) are incubated for 15 minutes at room temperature (RT) in assay buffer containing 50 mM HEPES pH 7.5, 50 mM KCl, 50 mM MgCl2, 0.01% Tween 20 and 10 mM DTT. The reaction is initiated by the addition of the combined substrates ATP and Methionine, each at a final concentration of 100 μM. Final assay condition are 12.5 nM Mat2A, 100 μM ATP and Methionine Substrates and 2% DMSO. After 120 minutes of incubation at RT, the reaction is stopped by the addition of Biomol Green. The absorbance signal is measured at λ=635 nm with a multiplate reader (BMG Pherastar reader or equivalent) after 30 min of equilibration at RT.

Recombinant human Mat2a, sequence (P31153 whole entry): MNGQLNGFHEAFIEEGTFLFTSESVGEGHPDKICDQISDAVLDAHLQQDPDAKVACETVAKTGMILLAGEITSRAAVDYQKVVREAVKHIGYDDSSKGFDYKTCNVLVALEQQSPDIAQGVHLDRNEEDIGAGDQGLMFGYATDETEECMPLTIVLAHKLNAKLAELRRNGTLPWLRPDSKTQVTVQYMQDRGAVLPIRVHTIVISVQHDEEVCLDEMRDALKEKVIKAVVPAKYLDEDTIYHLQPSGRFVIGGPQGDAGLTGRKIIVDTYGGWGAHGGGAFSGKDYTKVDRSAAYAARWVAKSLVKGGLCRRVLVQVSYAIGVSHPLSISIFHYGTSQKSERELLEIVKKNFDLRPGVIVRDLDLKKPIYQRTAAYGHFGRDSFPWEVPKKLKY

Compared with `COc1ccccc1C(=O)n1nc(N)c2ccc(C3=CCCCC3)nc21` [Example 6, [3-amino-6-(cyclohexen-1-yl)pyrazolo[3,4-b]pyridin-1-yl]-(2-methoxyphenyl)methanone], `COc1ccccc1C(=O)n1nc(N)c2ccc(C3=CCCC3)nc21` [Example 23, [3-amino-6-(cyclopenten-1-yl)pyrazolo[3,4-b]pyridin-1-yl]-(2-methoxyphenyl)methanone] is 5.5-fold lower in IC50: 110 nM for the first, 20 nM for the second.

First: Nc1nn(C(=O)c2cccnc2C(F)(F)F)c2nc(C3CC3)ccc12 [Example 77, (3-amino-6-cyclopropyl-1H-pyrazolo[3,4-b]pyridin-1-yl)(2-(trifluoromethyl)pyridin-3-yl)methanone]
Second: Cc1ncccc1C(=O)n1nc(N)c2ccc(C3CC3)nc21 [Example 68, (3-amino-6-cyclopropyl-1H-pyrazolo[3,4-b]pyridin-1-yl)(2-methylpyridin-methylpyridine-3-yl)methanone]
The IC50 of the first is 1.6-fold higher: 31 nM for the first, 19 nM for the second. The second is the more potent here.

Compared with `COc1ccccc1C(=O)n1nc(N)c2ccc(N3CC(F)(F)C3)nc21` [Example 27, (3-amino-6-(3,3-difluoroazetidin-1-yl)-1H-pyrazolo[3,4-b]pyridin-1-yl)(2-methoxyphenyl)methanone], `COc1ccccc1C(=O)n1nc(N)c2ccc(C3CC3(F)F)nc21` (stereo not drawn) [Example 40, (3-amino-6-(2,2-difluorocyclopropyl)-1H-pyrazolo[3,4-b]pyridin-1-yl)(2-methoxyphenyl)methanone] is 2.2-fold lower in IC50: 69 nM for the first, 32 nM for the second.

First: COc1c(Cl)cccc1C(=O)n1nc(N)c2ccc(C3CC3)nc21 [Example 71, (3-amino-6-cyclopropyl-1H-pyrazolo[3,4-b]pyridin-1-yl)(3-chloro-2-methoxyphenyl)methanone]
Second: Cc1c(F)cccc1C(=O)n1nc(N)c2ccc(C3CC3)nc21 [Example 54, (3-amino-6-cyclopropyl-1H-pyrazolo[3,4-b]pyridin-1-yl)(3-fluoro-2-methylphenyl)methanone]
The IC50 of the first is 2.3-fold higher: 480 nM for the first, 210 nM for the second.

First: COc1ccccc1C(=O)n1nc(N)c2ccc([C@H]3C[C@@H]3F)nc21 (racemic) [Example 39, (3-amino-6-((1RS,2SR)-2-fluorocyclopropyl)-1H-pyrazolo[3,4-b]pyridin-1-yl)(2-methoxyphenyl)methanone]
Second: COc1ccccc1C(=O)n1nc(N)c2ccc([C@H]3C[C@@H]3C)nc21 (racemic) [Example 34, (3-amino-6-((1RS,2RS)-2-methylcyclopropyl)-1H-pyridin-3-pyrazolo[3,4-b]pyridin-1-yl)(2-methoxyphenyl)methanone]
The IC50 of the first is 2.2-fold higher: 64 nM for the first, 29 nM for the second. The second is the more potent here.

Compared with `Cc1ncsc1C(=O)n1nc(N)c2ccc(C3CC3)nc21` [Example 63, (3-amino-6-cyclopropyl-1H-pyrazolo[3,4-b]pyridin-1-yl)(4-methylthiazol-5-yl)methanone], `Cc1nccnc1C(=O)n1nc(N)c2ccc(C3CC3)nc21` [Example 74, (3-amino-6-cyclopropyl-1H-pyrazolo[3,4-b]pyridin-1-yl)(3-methylpyrazin-2-yl)methanone] is 1.7-fold higher in IC50: 130 nM for the first, 220 nM for the second. The first is the more potent here.

`COc1ccccc1C(=O)n1nc(N)c2ccc(CC(C)C)nc21` [Example 2, (3-amino-6-isobutyl-1H-pyrazolo[3,4-b]pyridin-1-yl)(2-methoxyphenyl)methanone] and `COc1ccccc1C(=O)n1nc(N)c2ccc(C(C)(C)C)nc21` [Example 15, (3-amino-6-(tert-butyl)-1H-pyrazolo[3,4-b]pyridin-1-yl)(2-methoxyphenyl)methanone] are within 1.5-fold of each other in IC50: 110 nM for the first, 99 nM for the second.

Compared with `COc1ccccc1C(=O)n1nc(N)c2cc3c(nc21)CC(C)(C)CC3` [Example 21, (3-amino-7,7-dimethyl-5,6,7,8-tetrahydro-1H-pyrazolo[3,4-b]quinolin-1-yl)(2-methoxyphenyl)methanone], `COc1ccccc1C(=O)n1nc(N)c2cc(Cl)c(C3CC3)nc21` [Example 8, (3-amino-5-chloro-6-cyclopropyl-1H-pyrazolo[3,4-b]pyridin-1-yl)(2-methoxyphenyl)methanone] is 2.5-fold lower in IC50: 140 nM for the first, 56 nM for the second.

First: COc1ccccc1C(=O)n1nc(N)c2ccc(C3CCC3)nc21 [Example 32]
Second: Cc1ccccc1C(=O)n1nc(N)c2ccc(C3CCC3)nc21 [Example 31, (3-amino-6-cyclobutyl-1H-pyrazolo[3,4-b]pyridin-1-yl)(o-tolyl)methanone]
The IC50 of the first is 3.4-fold lower: 59 nM for the first, 200 nM for the second. The first is the more potent here.

Compared with `COc1ccccc1C(=O)n1nc(N)c2ccc(N3C4CCC3CC4)nc21` [Example 53, [3-amino-6-(7-azabicyclo[2.2.1]heptan-7-yl)pyrazolo[3,4-b]pyridin-1-yl]-(2-methoxyphenyl)methanone], `COc1ccccc1C(=O)n1nc(N)c2ccc(C3=CCOC3)nc21` [Example 35, [3-amino-6-(2,5-dihydrofuran-3-yl)pyrazolo[3,4-b]pyridin-1-yl]-(2-methoxyphenyl)methanone] is 14-fold lower in IC50: 240 nM for the first, 17 nM for the second.

First: COc1ccccc1C(=O)n1nc(N)c2cnc(N3CCCC3)nc21 [Example 16, (3-amino-6-(pyrrolidin-1-yl)-1H-pyrazolo[3,4-d]pyrimidin-1-yl)(2-methoxyphenyl)methanone]
Second: Nc1nn(C(=O)c2ccccc2Cl)c2nc(N3CCCC3)ncc12 [Example 18, (3-amino-6-(pyrrolidin-1-yl)-1H-pyrazolo[3,4-d]pyrimidin-1-yl)(2-chlorophenyl)methanone]
The IC50 of the first is 5.4-fold lower: 65 nM for the first, 350 nM for the second. The first is the more potent here.

Going from `COc1c(F)cccc1C(=O)n1nc(N)c2ccc(C3CC3(F)F)nc21` (stereo not drawn) [Example 45, (3-amino-6-(2,2-difluorocyclopropyl)-1H-pyrazolo[3,4-b]pyridin-1-yl)(3-fluoro-2-methoxyphenyl)methanone] to `Cc1ccccc1C(=O)n1nc(N)c2ccc(C3CC3(F)F)nc21` (stereo not drawn) [Example 41, (3-amino-6-(2,2-difluorocyclopropyl)-1H-pyrazolo[3,4-b]pyridin-1-yl)(o-tolyl)methanone], the IC50 rises from 91 nM to 150 nM (1.6-fold).

First: Nc1nn(C(=O)c2cccnc2Cl)c2nc(C3CC3)ccc12 [Example 76, (3-amino-6-cyclopropyl-1H-pyrazolo[3,4-b]pyridin-1-yl)(2-chloropyridin-3-yl)methanone]
Second: COc1ncccc1C(=O)n1nc(N)c2ccc(C3CC3)nc21 [Example 75, (3-amino-6-cyclopropyl-1H-pyrazolo[3,4-b]pyridin-1-yl)(2-methoxypyridin-3-yl)methanone]
The IC50 of the first is 1.5-fold lower: 17 nM for the first, 26 nM for the second.

First: Cc1ccccc1C(=O)n1nc(N)c2ccc(C(F)(F)F)nc21 [Example 25, (3-amino-6-(trifluoromethyl)-1H-pyrazolo[3,4-b]pyridin-1-yl)(o-tolyl)methanone]
Second: Cc1ccccc1C(=O)n1nc(N)c2ccc(C3(C)CC3)nc21 [Example 48, (3-amino-6-(1-methylcyclopropyl)-1H-pyrazolo[3,4-b]pyridin-1-yl)(o-tolyl)methanone]
The IC50 of the first is 2.2-fold higher: 290 nM for the first, 130 nM for the second.

`Nc1nn(C(=O)c2ccccc2Cl)c2nc(N3CCCC3)c(F)cc12` [Example 12, (3-amino-5-fluoro-6-(pyrrolidin-1-yl)-1H-pyrazolo[3,4-b]pyridin-1-yl)(2-chlorophenyl)methanone] and `Nc1nn(C(=O)c2ccccc2Cl)c2nc(N3CCCC3)ccc12` [Example 4, (3-amino-6-(pyrrolidin-1-yl)-1H-pyrazolo[3,4-b]pyridin-1-yl)(2-chlorophenyl)methanone] are the same in IC50: 140 nM for the first, 140 nM for the second.

Compared with `Nc1nn(C(=O)c2ccccc2OC(F)F)c2nc(C3CC3)ccc12` [Example 61, (3-amino-6-cyclopropyl-1H-pyrazolo[3,4-b]pyridin-1-yl)(2-(difluoromethoxy)phenyl)methanone], `COc1cc(F)ccc1C(=O)n1nc(N)c2ccc(C3CC3)nc21` [Example 58, (3-amino-6-cyclopropyl-1H-pyrazolo[3,4-b]pyridin-1-yl)(4-fluoro-2-methoxyphenyl)methanone] is 2.3-fold higher in IC50: 130 nM for the first, 300 nM for the second.

First: COc1ccccc1C(=O)n1nc(N)c2cc(F)c(-c3ccccc3)nc21 [Example 10, (3-amino-5-fluoro-6-phenyl-1H-pyrazolo[3,4-b]pyridin-1-yl)(2-methoxyphenyl)methanone]
Second: COc1ccccc1C(=O)n1nc(N)c2ccc(C3=CCCCO3)nc21 [Example 22, [3-amino-6-(3,4-dihydro-2H-pyran-6-yl)pyrazolo[3,4-b]pyridin-1-yl]-(2-methoxyphenyl)methanone]
The IC50 of the first is 1.6-fold lower: 280 nM for the first, 440 nM for the second. The first is the more potent here.

Going from `Nc1nn(C(=O)C2CCNC(=O)C2)c2nc(C3CC3)ccc12` (stereo not drawn) [Example 69, 4-(3-amino-6-cyclopropyl-1H-pyrazolo[3,4-b]pyridine-1-carbonyl)piperidin-2-one] to `C[C@H]1C(=O)NCC[C@H]1C(=O)n1nc(N)c2ccc(C3CC3)nc21` (racemic) [Example 59, (3RS,4RS)-4-(3-amino-6-cyclopropylpyrazolo[3,4-b]pyridine-1-carbonyl)-3-methylpiperidin-2-one], the IC50 falls from 79 nM to 33 nM (2.4-fold).

Going from `CC1OCCC1C(=O)n1nc(N)c2ccc(C3CC3(F)F)nc21` (stereo not drawn) [Example 50, (3-amino-6-(2,2-difluorocyclopropyl)-1H-pyrazolo[3,4-b]pyridin-1-yl)(2-methyltetrahydrofuran-3-yl)methanone] to `Cc1ncccc1C(=O)n1nc(N)c2ccc(C3CC3(F)F)nc21` (stereo not drawn) [Example 49, (3-amino-6-(2,2-difluorocyclopropyl)-1H-pyrazolo[3,4-b]pyridin-1-yl)(2-methylpyridin-3-yl)methanone], the IC50 falls from 160 nM to 22 nM (7.3-fold). The second is the more potent here.

Work on `Cc1ccccc1C(=O)n1nc(N)c2ccc(C3=CCCC3)nc21` [Example 30, [3-amino-6-(cyclopenten-1-yl)pyrazolo[3,4-b]pyridin-1-yl]-(2-methylphenyl)methanone] yielded an IC50 of 53 nM.
